12 molecules from patent publication US20220016102A1, “ER PROTEIN REGULATORS AND USE THEREOF” (ShanghaiTech University, priority 2018, published 2022) can be followed below.

Experiment [1] has as its target T1, ER protein (Homo sapiens, UniProt P03372).
T1 sequence (P03372 1-595): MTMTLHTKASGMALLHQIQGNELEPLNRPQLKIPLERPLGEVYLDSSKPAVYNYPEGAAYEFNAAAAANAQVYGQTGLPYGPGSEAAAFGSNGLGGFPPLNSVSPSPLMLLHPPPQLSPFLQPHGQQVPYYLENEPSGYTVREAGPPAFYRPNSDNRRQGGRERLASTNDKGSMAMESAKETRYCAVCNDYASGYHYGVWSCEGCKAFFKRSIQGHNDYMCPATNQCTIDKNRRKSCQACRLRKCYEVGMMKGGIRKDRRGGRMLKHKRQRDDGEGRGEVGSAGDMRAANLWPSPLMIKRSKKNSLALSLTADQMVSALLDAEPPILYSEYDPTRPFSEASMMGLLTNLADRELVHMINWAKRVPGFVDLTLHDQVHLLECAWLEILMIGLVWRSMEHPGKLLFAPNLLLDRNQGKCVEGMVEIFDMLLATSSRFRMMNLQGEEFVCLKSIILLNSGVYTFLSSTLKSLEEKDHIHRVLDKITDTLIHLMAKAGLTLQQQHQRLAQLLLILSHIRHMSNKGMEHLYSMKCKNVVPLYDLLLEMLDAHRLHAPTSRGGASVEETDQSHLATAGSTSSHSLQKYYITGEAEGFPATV
The experiment can be described thus: Western blotting analysis of ER protein degradation in MCF-7 cell line. The experiment is classed as cell-based. Details: western blotting detection of the level of intracellular ER protein; endogenous in cells. Conditions: MCF-7 cells, Western blot gray values vs DMSO control. On the procedure:
MCF-7 were cultured in ncubator with 5% CO2 at 37° C. Complete medium was EMEM supplemented with 10% FBS, 100 U/mL Penicillin and Streptomycin, and 0.77 μg/mL recombinant human insulin. […]
DC50 value (the drug concentration required for degrading proteins by 50%, abbreviated as DC50) reads method: comparing the gray values of the Western blotting bands for the drug treatment with the gray values of the Western blotting band for the DMSO control, and reading the drug concentration range corresponding to the gray value of the Western blotting bands for the drug treatment which is equal to half of the gray value of the Western blotting band for the DMSO control.
DC50 value could also be calculated as follows: using software ImageJ to quantify the gray values of the Western blotting bands for the drug treatment, fitting the relationship curve between drug concentrations and gray values, and from the fitted curve, calculating the drug concentration corresponding to half of the gray value of the Western blotting band for the DMSO control.

Experiment [2] concerns the target T1, ER protein. Briefly: Western blotting analysis of ER protein degradation in T47D cell line. Type of experiment: cell-based. More on the design: western blotting detection of the level of intracellular ER protein; endogenous in cells; host or cells: T47D. The following applies: degradation of ER protein, T47D cells, drug treatment for 16 hours, Western blot gray values vs DMSO control; read-out: DC50 (nM)/T47Dcell line. On the procedure:
T47D cells were cultured in an incubator with 5% CO2 at 37° C. Complete medium was RPMI1640 supplemented with 10% Foetal bovine serum (FBS), 100 U/ml Penicillin and Streptomycin, and 0.77 μg/mL recombinant human insulin. Western blotting analysis of T47D cell line: • Cells were plated in a 24-well plate at a cell seeding […] of 1.5×10^5 cells/mL, with 1 ml cell suspensions per well. • After 24 h the cells were adherent, and the cells in each well were treated with 1 μL a certain concentration of ER protein regulators of the present disclosure. […] Afterwards, the membranes were block by using the Blocking Buffer, and the antibody incubation and development were performed. (The above procedures were all based on the antibody product manual of the manufacturer) DC50 value (the drug concentration required for degrading proteins by 50%, abbreviated as DC50) reads method: comparing the gray values of the Western blotting bands for the drug treatment with the gray values of the Western blotting band for the DMSO control, and reading the drug concentration range corresponding to the gray value of the Western blotting bands for the drug treatment which is equal to half of the gray value of the Western blotting band for the DMSO control. DC50 value could also be calculated as follows: using software ImageJ to quantify the gray values of the Western blotting bands for the drug treatment, fitting the relationship curve between drug concentrations and gray values, and from the fitted curve, calculating the drug concentration corresponding to half of the gray value of the Western blotting band for the DMSO control.
(Immunoblotting shows a protein as a band on a membrane.)

In the case of `Cc1ncsc1-c1ccc(CNC(=O)[C@@H]2C[C@@H](O)CN2C(=O)[C@@H](NC(=O)CCCCCCCCC(=O)NCCOc2ccc(/C(=C(/CCCl)c3ccccc3)c3ccc(O)cc3)cc2)C(C)(C)C)cc1` [SIAIS208036, N1-(2-(4-((Z)-4-chloro-1-(4-hydroxyphenyl)-2-phenylbut-1-en-1-yl)phenoxy)ethyl)-N10-((S)-1-((2S,4R)-4-hydroxy-2-((4-(4-methylthiazol-5-yl)benzyl)carbamoyl)pyrrolidin-1-yl)-3,3-dimethyl-1-oxobutan-2-yl)decanediamide], the DC50 on ER protein [1] and on ER protein [2] was < 10 nM throughout.

Consider `Cc1ncsc1-c1ccc(CNC(=O)[C@@H]2C[C@@H](O)CN2C(=O)[C@@H](NC(=O)CCCCCC(=O)NCCOc2ccc(C(=C(CCCl)c3ccccc3)c3ccc(O)cc3)cc2)C(C)(C)C)cc1` [SIAIS208033, N1-(2-(4-(4-chloro-1-(4-hydroxyphenyl)-2-phenylbut-1-en-1-yl)phenoxy)ethyl)-N7-((S)-1-((2S,4R)-4-hydroxy-2-((4-(4-methylthiazol-5-yl)benzyl)carbamoyl)pyrrolidin-1-yl)-3,3-dimethyl-1-oxobutan-2-yl)heptanediamide], for which the DC50 on ER protein [1] and at ER protein [2] was < 10 nM each time.

Regarding `Cc1ncsc1-c1ccc(CNC(=O)[C@@H]2C[C@@H](O)CN2C(=O)[C@@H](NC(=O)CCCC(=O)NCCOc2ccc(C(=C(CCCl)c3ccccc3)c3ccc(O)cc3)cc2)C(C)(C)C)cc1` [SIAIS208031, N1-(2-(4-(4-chloro-1-(4-hydroxyphenyl)-2-phenylbut-1-en-1-yl)phenoxy)ethyl)-N5-((S)-1-((2S,4R)-4-hydroxy-2-((4-(4-methylthiazol-5-yl)benzyl)carbamoyl)pyrrolidin-1-yl)-3,3-dimethyl-1-oxobutan-2-yl)glutaramide], the DC50 at ER protein [1] and at ER protein [2] was < 100 nM throughout.

As for `Cc1ncsc1-c1ccc(CNC(=O)[C@@H]2C[C@@H](O)CN2C(=O)[C@@H](NC(=O)CCCCCCC(=O)NCCOc2ccc(C(=C(CCCl)c3ccccc3)c3ccc(O)cc3)cc2)C(C)(C)C)cc1` [SIAIS208034, N1-(2-(4-(4-chloro-1-(4-hydroxyphenyl)-2-phenylbut-1-en-1-yl)phenoxy)ethyl)-N8-((S)-1-((2S,4R)-4-hydroxy-2-((4-(4-methylthiazol-5-yl)benzyl)carbamoyl)pyrrolidin-1-yl)-3,3-dimethyl-1-oxobutan-2-yl)octanediamide], the DC50 at ER protein [1] and at ER protein [2] was < 10 nM each time.

On to `Cc1ncsc1-c1ccc(CNC(=O)[C@@H]2C[C@@H](O)CN2C(=O)[C@@H](NC(=O)CCOCCOCCC(=O)NCCOc2ccc(C(=C(CCCl)c3ccccc3)c3ccc(O)cc3)cc2)C(C)(C)C)cc1` [SIAIS208017, (2S,4R)-1-((S)-2-(tert-butyl)-16-(4-(4-chloro-1-(4-hydroxyphenyl)-2-phenylbut-1-en-1-yl)phenoxy)-4,13-dioxo-7,10-dioxa-3,14-diazahexadecanoyl)-4-hydroxy-N-(4-(4-methylthiazol-5-yl)benzyl)pyrrolidine-2-carboxamide], for which the figures for the DC50 on ER protein [1] and on ER protein [2] were < 100 nM and < 50 nM, respectively.

For the molecule `Cc1ncsc1-c1ccc(CNC(=O)[C@@H]2C[C@@H](O)CN2C(=O)[C@@H](NC(=O)CCCCCCCCCCCCC(=O)NCCOc2ccc(C(=C(CCCl)c3ccccc3)c3ccc(O)cc3)cc2)C(C)(C)C)cc1` [SIAIS208038, N1-(2-(4-(4-chloro-1-(4-hydroxyphenyl)-2-phenylbut-1-en-1-yl)phenoxy)ethyl)-N14-((S)-1-((2S,4R)-4-hydroxy-2-((4-(4-methylthiazol-5-yl)benzyl)carbamoyl)pyrrolidin-1-yl)-3,3-dimethyl-1-oxobutan-2-yl)tetradecanediamide], the DC50 at ER protein [1] was < 10 nM; on ER protein [2] it was < 50 nM.

For the molecule `Cc1ncsc1-c1ccc(CNC(=O)[C@@H]2C[C@@H](O)CN2C(=O)[C@@H](NC(=O)CCOCCOCCOCCC(=O)NCCOc2ccc(C(=C(CCCl)c3ccccc3)c3ccc(O)cc3)cc2)C(C)(C)C)cc1` [SIAIS208018, (2S,4R)-1-((S)-2-(tert-butyl)-19-(4-(4-chloro-1-(4-hydroxyphenyl)-2-phenylbut-1-en-1-yl)phenoxy)-4,16-dioxo-7,10,13-trioxa-3,17-diazanonadecanoyl)-4-hydroxy-N-(4-(4-methylthiazol-5-yl)benzyl)pyrrolidine-2-carboxamide], the DC50 on ER protein [1] and on ER protein [2] was < 50 nM in each case.

Take `Cc1ncsc1-c1ccc(CNC(=O)[C@@H]2C[C@@H](O)CN2C(=O)[C@@H](NC(=O)CCCCCCCCCCCCCCC(=O)NCCOc2ccc(C(=C(CCCl)c3ccccc3)c3ccc(O)cc3)cc2)C(C)(C)C)cc1` [SIAIS208039, N1-(2-(4-(4-chloro-1-(4-hydroxyphenyl)-2-phenylbut-1-en-1-yl)phenoxy)ethyl)-N16-((S)-1-((2S,4R)-4-hydroxy-2-((4-(4-methylthiazol-5-yl)benzyl)carbamoyl)pyrrolidin-1-yl)-3,3-dimethyl-1-oxobutan-2-yl)hexadecanediamide]: the DC50 at ER protein [1] is < 100 nM; at ER protein [2] it was < 50 nM.

For `Cc1ncsc1-c1ccc(CNC(=O)[C@@H]2C[C@@H](O)CN2C(=O)[C@@H](NC(=O)CCCCCCCCCC(=O)NCCOc2ccc(C(=C(CCCl)c3ccccc3)c3ccc(O)cc3)cc2)C(C)(C)C)cc1` [SIAIS208037, N1-(2-(4-(4-chloro-1-(4-hydroxyphenyl)-2-phenylbut-1-en-1-yl)phenoxy)ethyl)-N11-((S)-1-((2S,4R)-4-hydroxy-2-((4-(4-methylthiazol-5-yl)benzyl)carbamoyl)pyrrolidin-1-yl)-3,3-dimethyl-1-oxobutan-2-yl)undecanediamide], the DC50 at ER protein [1] and at ER protein [2] was < 10 nM throughout.

In the case of `Cc1ncsc1-c1ccc(CNC(=O)[C@@H]2C[C@@H](O)CN2C(=O)[C@@H](NC(=O)COCCOCC(=O)NCCOc2ccc(C(=C(CCCl)c3ccccc3)c3ccc(O)cc3)cc2)C(C)(C)C)cc1` [SIAIS208041, (2S,4R)-1-((S)-2-(tert-butyl)-14-(4-(4-chloro-1-(4-hydroxyphenyl)-2-phenylbut-1-en-1-yl)phenoxy)-4,11-dioxo-6,9-dioxa-3,12-diazatetradecanoyl)-4-hydroxy-N-(4-(4-methylthiazol-5-yl)benzyl)pyrrolidine-2-carboxamide], the DC50 on ER protein [1] is 10 nM; at ER protein [2] it was < 10 nM.

With `Cc1ncsc1-c1ccc(CNC(=O)[C@@H]2C[C@@H](O)CN2C(=O)[C@@H](NC(=O)CCOCCOCCOCCOCCC(=O)NCCOc2ccc(C(=C(CCCl)c3ccccc3)c3ccc(O)cc3)cc2)C(C)(C)C)cc1` [SIAIS208019, N1-(2-(4-(4-chloro-1-(4-hydroxyphenyl)-2-phenylbut-1-en-1-yl)phenoxy)ethyl)-N16-((S)-1-((2S,4R)-4-hydroxy-2-((4-(4-methylthiazol-5-yl)benzyl)carbamoyl)pyrrolidin-1-yl)-3,3-dimethyl-1-oxobutan-2-yl)-4,7,10,13-tetraoxahexadecanediamide], the values for the DC50 at ER protein [1] and on ER protein [2] were < 50 nM and < 10 nM, respectively.

As to `Cc1ncsc1-c1ccc(CNC(=O)[C@@H]2C[C@@H](O)CN2C(=O)[C@@H](NC(=O)CCCCC(=O)NCCOc2ccc(C(=C(CCCl)c3ccccc3)c3ccc(O)cc3)cc2)C(C)(C)C)cc1` [SIAIS208032, N1-(2-(4-(4-chloro-1-(4-hydroxyphenyl)-2-phenylbut-1-en-1-yl)phenoxy)ethyl)-N6-((S)-1-((2S,4R)-4-hydroxy-2-((4-(4-methylthiazol-5-yl)benzyl)carbamoyl)pyrrolidin-1-yl)-3,3-dimethyl-1-oxobutan-2-yl)adipamide], the DC50 is < 100 nM at ER protein [1] and < 50 nM on ER protein [2].
